Laboratory results reported in the supplement of paper PMC6004109.

What was measured:
Settings in all cases: temperature: 37 °C
[1] = test system: Saccharomyces cerevisiae ZIM 2255 (RPMI); test: FICI minimum (fractional inhibitory concentration index, Loewe) (dimensionless); higher = less synergy / more antagonism
How it was run: (§1)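 The values are the minimum or maximum Loewe fractional inhibitory concentration index over the combination surface, each the sum of MIC-combination/MIC-alone ratios. The MIC was MIC50 or MIC90, depending on the drug. Plates followed CLSI M27-A3 checkerboard broth microdilution, using RPMI for clinical isolates and YPD for C. glabrata ATCC 2001 and its derived strain, with 100 µl of 3–5 × 10^3 cells/ml added to 100 µl of drug dilutions. After 48 h at 37 °C, background-subtracted OD600 was read, with at least biological triplicates.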

[2] = test system: Candida glabrata ZIM 2365 (RPMI); test: as above
How it was run: as §1

[3] = test system: Saccharomyces cerevisiae ZIM 2566 (RPMI); test: as above
How it was run: as §1

[4] = test system: Candida glabrata ZIM 2382 (RPMI); test: as above
How it was run: as §1

[5] = test system: Saccharomyces cerevisiae ZIM 2247 (RPMI); test: as above
How it was run: as §1

[6] = test system: Candida glabrata ZIM 2385 (RPMI); test: as above
How it was run: as §1

[7] = test system: Candida glabrata ZIM 2389 (RPMI); test: as above
How it was run: as §1

[8] = test system: Saccharomyces cerevisiae ZIM 2260 (RPMI); test: as above
How it was run: as §1

[9] = test system: Saccharomyces cerevisiae ZIM 2558 (RPMI); test: as above
How it was run: as §1

[10] = test system: Candida glabrata ZIM 2369 (RPMI); test: as above
How it was run: as §1

[11] = test system: Candida glabrata ATCC 2001 (YPD); test: FICI maximum (fractional inhibitory concentration index, Loewe) (dimensionless); higher = less synergy / more antagonism
How it was run: as §1

[12] = test system: Candida glabrata ATCC 2001 pdr1 deletion mutant (YPD); test: as above
How it was run: as §1

[13] = test system: Candida glabrata ATCC 2001 (YPD); test: FICI minimum (fractional inhibitory concentration index, Loewe) (dimensionless); higher = less synergy / more antagonism
How it was run: as §1

[14] = test system: Candida glabrata ATCC 2001 pdr1 deletion mutant (YPD); test: as above
How it was run: as §1

[15] = test system: Candida glabrata ATCC 2001 (YPD); test: Bliss independence sum of statistically significant ΔE (measured minus predicted growth inhibition) over checkerboard surface (fraction (sum of ΔE; 1 = 100%)); higher = more synergy
[16] = test system: Candida glabrata ATCC 2001 pdr1 deletion mutant (YPD); test: as above

Structure (SMILES) | FICI minimum [1] | FICI minimum [2] | FICI minimum [3] | FICI minimum [4] | FICI minimum [5] | FICI minimum [6] | FICI minimum [7] | FICI minimum [8] | FICI minimum [9] | FICI minimum [10] | FICI maximum [11] | FICI maximum [12] | FICI minimum [13] | FICI minimum [14] | Bliss independence sum [15] | Bliss independence sum [16]
CC1(C)S[C@@H]2[C@H](NC(=O)[C@H](N)c3ccc(O)cc3)C(=O)N2[C@H]1C(=O)O [amoxicillin] + CCC(C)n1ncn(-c2ccc(N3CCN(c4ccc(OCC5COC(Cn6cncn6)(c6ccc(Cl)cc6Cl)O5)cc4)CC3)cc2)c1=O [itraconazole] | 1.01 | 0.562 | 1.01 | 1.01 | 0.508 | 1.01 | 1.01 | 1.01 | 0.508 | 1.01 |  |  |  |  |  | 
CC1(C)S[C@@H]2[C@H](NC(=O)[C@H](N)c3ccc(O)cc3)C(=O)N2[C@H]1C(=O)O [amoxicillin] + C[C@@H]1[C@H](O)[C@@H](C)/C=C/C=C/C=C/C=C/C=C/C=C/C=C/[C@H](O[C@@H]2O[C@H](C)[C@@H](O)[C@H](N)[C@@H]2O)C[C@@H]2O[C@](O)(C[C@@H](O)C[C@@H](O)[C@H](O)CC[C@@H](O)C[C@@H](O)CC(=O)O[C@H]1C)C[C@H](O)[C@H]2C(=O)O [amphotericin B] | 1.01 | 0.258 | 0.562 | 0.508 | 1.01 | 0.508 | 0.508 | 1.01 | 2.02 | 1.01 |  |  |  |  |  | 
CN(Cc1cnc2nc(N)nc(N)c2n1)c1ccc(C(=O)N[C@@H](CCC(=O)O)C(=O)O)cc1 [methotrexate] + CCC(C)n1ncn(-c2ccc(N3CCN(c4ccc(OCC5COC(Cn6cncn6)(c6ccc(Cl)cc6Cl)O5)cc4)CC3)cc2)c1=O [itraconazole] | 1 | 0.505 | 1 | 1 | 0.505 | 0.505 | 1 | 1.08 | 0.656 | 1 |  |  |  |  |  | 
CN(Cc1cnc2nc(N)nc(N)c2n1)c1ccc(C(=O)N[C@@H](CCC(=O)O)C(=O)O)cc1 [methotrexate] + C[C@@H]1[C@H](O)[C@@H](C)/C=C/C=C/C=C/C=C/C=C/C=C/C=C/[C@H](O[C@@H]2O[C@H](C)[C@@H](O)[C@H](N)[C@@H]2O)C[C@@H]2O[C@](O)(C[C@@H](O)C[C@@H](O)[C@H](O)CC[C@@H](O)C[C@@H](O)CC(=O)O[C@H]1C)C[C@H](O)[C@H]2C(=O)O [amphotericin B] | 0.516 | 1 | 1 | 1 | 1 | 2 | 1 | 1 | 1 | 1 |  |  |  |  |  | 
CN(Cc1cnc2nc(N)nc(N)c2n1)c1ccc(C(=O)N[C@@H](CCC(=O)O)C(=O)O)cc1 [methotrexate] + OC(Cn1cncn1)(Cn1cncn1)c1ccc(F)cc1F [fluconazole] | 1 | 1 | 1 | 1 | 1 | 1 | 0.505 | 1.01 | 0.406 | 1 |  |  |  |  |  | 
COc1c(C)c2c(c(O)c1C/C=C(\C)CCC(=O)O)C(=O)OC2 [mycophenolic acid] + C[C@@H]1[C@H](O)[C@@H](C)/C=C/C=C/C=C/C=C/C=C/C=C/C=C/[C@H](O[C@@H]2O[C@H](C)[C@@H](O)[C@H](N)[C@@H]2O)C[C@@H]2O[C@](O)(C[C@@H](O)C[C@@H](O)[C@H](O)CC[C@@H](O)C[C@@H](O)CC(=O)O[C@H]1C)C[C@H](O)[C@H]2C(=O)O [amphotericin B] | 1 | 0.5 | 0.633 | 0.5 | 0.767 | 0.5 | 0.531 | 0.58 | 0.375 | 0.75 |  |  |  |  |  | 
COc1c(C)c2c(c(O)c1C/C=C(\C)CCC(=O)O)C(=O)OC2 [mycophenolic acid] + OC(Cn1cncn1)(Cn1cncn1)c1ccc(F)cc1F [fluconazole] | 2.5 | 1.02 | 1.01 | 1.01 | 2.02 | 0.508 | 1.01 | 0.66 | 1.01 | 1.01 | 2.5 | 2.12 | 1.06 | 1.03 | -2.6 | -3.21
C=CC[C@@H]1/C=C(\C)C[C@H](C)C[C@H](OC)[C@H]2O[C@@](O)(C(=O)C(=O)N3CCCC[C@H]3C(=O)O[C@H](/C(C)=C/[C@@H]3CC[C@@H](O)[C@H](OC)C3)[C@H](C)[C@@H](O)CC1=O)[C@H](C)C[C@@H]2OC [tacrolimus] + CCC(C)n1ncn(-c2ccc(N3CCN(c4ccc(OCC5COC(Cn6cncn6)(c6ccc(Cl)cc6Cl)O5)cc4)CC3)cc2)c1=O [itraconazole] | 0.254 | 0.5 | 0.13 | 1 | 0.501 | 0.0725 | 0.126 | 0.251 | 0.25 | 0.25 |  |  |  |  |  | 
C=CC[C@@H]1/C=C(\C)C[C@H](C)C[C@H](OC)[C@H]2O[C@@](O)(C(=O)C(=O)N3CCCC[C@H]3C(=O)O[C@H](/C(C)=C/[C@@H]3CC[C@@H](O)[C@H](OC)C3)[C@H](C)[C@@H](O)CC1=O)[C@H](C)C[C@@H]2OC [tacrolimus] + C[C@@H]1[C@H](O)[C@@H](C)/C=C/C=C/C=C/C=C/C=C/C=C/C=C/[C@H](O[C@@H]2O[C@H](C)[C@@H](O)[C@H](N)[C@@H]2O)C[C@@H]2O[C@](O)(C[C@@H](O)C[C@@H](O)[C@H](O)CC[C@@H](O)C[C@@H](O)CC(=O)O[C@H]1C)C[C@H](O)[C@H]2C(=O)O [amphotericin B] | 0.0938 | 0.25 | 0.25 | 0.251 | 0.0638 | 0.281 | 0.26 | 0.251 | 0.252 | 0.258 |  |  |  |  |  | 
C=CC[C@@H]1/C=C(\C)C[C@H](C)C[C@H](OC)[C@H]2O[C@@](O)(C(=O)C(=O)N3CCCC[C@H]3C(=O)O[C@H](/C(C)=C/[C@@H]3CC[C@@H](O)[C@H](OC)C3)[C@H](C)[C@@H](O)CC1=O)[C@H](C)C[C@@H]2OC [tacrolimus] + OC(Cn1cncn1)(Cn1cncn1)c1ccc(F)cc1F [fluconazole] | 0.156 | 1 | 0.135 | 0.5 | 0.126 | 1 | 0.253 | 0.135 | 0.135 | 0.5 |  |  |  |  |  | 
